Experimental data: patent publication US9107926B2, “Mutant selectivity and combinations of a phosphoinositide 3-kinase inhibitor compound and chemotherapeutic agents for the treatment of cancer” (Genentech, Inc., priority 2012, dated 2015)

Experiments:
HPAC = assay: CellTiter-Glo cell proliferation assay; type: cell-based; details: Homo sapiens, Pancreatic, K-RAS
Detroit562 = assay: CellTiter-Glo cell proliferation assay; type: cell-based; details: Homo sapiens, Detroit 562, Head/Neck, Kinase-H1047R
EFM-19 = assay: CellTiter-Glo cell proliferation assay; type: cell-based; details: Homo sapiens, Breast, Kinase-HOM.1047H > L
Procedure: (§1) Cell Culture Medium: RPMI or DMEM high glucose, 10% Fetal Bovine Serum, 2 mM L-Glutamine, P/S. Incubate O/N (overnight) at 37° C., 5% CO2.
(§2) Drug Addition to Cells, Cell Plate (1:10 dilution): Add 6 μl of media+compound directly to cells (54 μl of media on the cells already). Incubate 3 days at 37° C., 5% CO2 in an incubator that will not be opened often.
(§3) Day 5—Develop Plates, Thaw Cell Titer Glo Buffer at room temperature: Remove Cell Plates from 37° C. and equilibrate to room temperature for about 30 minutes. Add Cell Titer-Glo® Buffer to Cell Titer-Glo® Substrate (bottle to bottle). Add 30 μl Cell Titer-Glo® Reagent (Promega cat.#G7572) to each well of cells. Place on plate shaker for about 30 minutes. Read luminescence on Analyst HT Plate Reader (half second per well).

[1] = system: SW48 PIK3CA E545K knock-in mutant subclone; assay: four day CellTiter-Glo viability assay, SW48 isogenic cell line set; details: Homo sapiens, SW48, 96 h, read-out: Viability EC50
Source text: (§4) SW48 parental cells and knock-in mutant subclones harboring common PIK3CA hotspot mutations E545K or H1047R were obtained from Horizon Discovery.

SW620 = assay: CellTiter-Glo cell proliferation assay; type: cell-based; details: Homo sapiens, SW-620, Colon, K-RAS
Cal 85-1 = assay: CellTiter-Glo cell proliferation assay; type: cell-based; details: Homo sapiens, Breast, WT
H596 = assay: CellTiter-Glo cell proliferation assay; type: cell-based; details: Homo sapiens, NCI-H596, Lung(NSCLC), Helical-HET.545E > K, HET.997L > P
MDA-MB-468 = assay: CellTiter-Glo cell proliferation assay; type: cell-based; details: Homo sapiens, Breast, PTEN
SKBR3 = assay: CellTiter-Glo cell proliferation assay; type: cell-based; details: Homo sapiens, SK-BR-3, Breast, HER2 Amplified
Procedure: as §1, §2, §3

H441 = assay: CellTiter-Glo cell proliferation assay; type: cell-based; details: Homo sapiens, NCI-H441, Lung(NSCLC), K-RAS
HS 578T-1x2 = assay: CellTiter-Glo cell proliferation assay; type: cell-based; details: Breast, WT
KP4x1 = assay: CellTiter-Glo cell proliferation assay; type: cell-based; details: Pancreatic, K-RAS
BT474 = assay: CellTiter-Glo cell proliferation assay; type: cell-based; details: Homo sapiens, BT-474, Breast, HER2 Amplified
G22 = assay: CellTiter-Glo cell proliferation assay; type: cell-based; details: Glioma, PTEN
SW48 parental cells = assay: four day CellTiter-Glo viability assay, SW48 isogenic cell line set; details: Homo sapiens, SW48, 96 h, read-out: Viability EC50
Source text: as §4

[2] = system: SW48 isogenic cells; parental and PIK3CA knock-in mutants E545K and H1047R; assay: western blot of cell lysates after 18 hours of GDC-0032 exposure; type: cell-based; details: lysates collected 18 hours post dosing
SF539 = assay: CellTiter-Glo cell proliferation assay; type: cell-based; details: Homo sapiens, SF-539, Glioma, PTEN
EVSA-T = assay: CellTiter-Glo cell proliferation assay; type: cell-based; details: Homo sapiens, Breast, PTEN
H838 = assay: CellTiter-Glo cell proliferation assay; type: cell-based; details: Homo sapiens, NCI-H838, Lung(NSCLC), WT
Procedure: as §1, §2, §3

LXFL-529 = assay: CellTiter-Glo cell proliferation assay; type: cell-based; details: Homo sapiens, Lung(NSCLC), Helical-HET.542E > K
IGROV1 = assay: CellTiter-Glo cell proliferation assay; type: cell-based; details: Homo sapiens, IGROV-1, Ovarian, Kinase-HET.1069O > W
Procedure: as §1, §2, §3

H1793 = assay: CellTiter-Glo cell proliferation assay; type: cell-based; details: Homo sapiens, NCI-H1793, Lung(NSCLC), WT
H322 = assay: CellTiter-Glo cell proliferation assay; type: cell-based; details: NCI-H322, Lung(NSCLC), WT
22RV1 = assay: CellTiter-Glo cell proliferation assay; type: cell-based; details: Homo sapiens, Prostate, Helical-HET.546Q > R
G96 = assay: CellTiter-Glo cell proliferation assay; type: cell-based; details: Glioma, WT
Calu-6 = assay: CellTiter-Glo cell proliferation assay; type: cell-based; details: Homo sapiens, Lung(NSCLC), K-RAS
HOP92 = assay: CellTiter-Glo cell proliferation assay; type: cell-based; details: Homo sapiens, HOP-92, Lung(NSCLC), WT
H1048 = assay: CellTiter-Glo cell proliferation assay; type: cell-based; details: Homo sapiens, NCI-H1048, Lung(SC), Kinase-HET.1047H > R, HET.391I > M
[3] = system: SKOV3 ovarian tumor xenografts; assay: In vivo mouse tumor xenograft efficacy; details: PO daily (QD), 21 day treatment period
Procedure: Xenografts were initiated with cancer cells. […] Volume was calculated using the formula:

EFO21 = assay: CellTiter-Glo cell proliferation assay; type: cell-based; details: Homo sapiens, EFO-21, Ovarian, PTEN
ZR75-30 = assay: CellTiter-Glo cell proliferation assay; type: cell-based; details: Homo sapiens, ZR-75-30, Breast, WT
H2122 = assay: CellTiter-Glo cell proliferation assay; type: cell-based; details: Homo sapiens, NCI-H2122, Lung(NSCLC), K-RAS
HDQ-P1 = assay: CellTiter-Glo cell proliferation assay; type: cell-based; details: Homo sapiens, Breast, WT
Procedure: as §1, §2, §3

HCC-70 = assay: CellTiter-Glo cell proliferation assay; type: cell-based; details: Homo sapiens, HCC70, Breast, PTEN
H292 = assay: CellTiter-Glo cell proliferation assay; type: cell-based; details: Homo sapiens, NCI-H292, Lung(NSCLC), K-RAS
SW403 = assay: CellTiter-Glo cell proliferation assay; type: cell-based; details: Homo sapiens, SW-403, Colon, KRAS/HET.546Q > K
LN-229 = assay: CellTiter-Glo cell proliferation assay; type: cell-based; details: Homo sapiens, Glioma, Helical-HET.545E > K
OVCAR3 = assay: CellTiter-Glo cell proliferation assay; type: cell-based; details: Homo sapiens, OVCAR-3, Ovarian, WT
LS-180 = assay: CellTiter-Glo cell proliferation assay; type: cell-based; details: Homo sapiens, LS180, Colon, KRAS/HET.1047H > R
CAL-148 = assay: CellTiter-Glo cell proliferation assay; type: cell-based; details: Homo sapiens, Breast, Kinase(HET.1047H > R)/-PTEN
Procedure: as §1, §2, §3

Structure (SMILES): Cc1nc(-c2cn3c(n2)-c2ccc(-c4cnn(C(C)(C)C(N)=O)c4)cc2OCC3)n(C(C)C)n1 [GDC-0032, 2-(4-(2-(1-isopropyl-3-methyl-1H-1,2,4-triazol-5-yl)-5,6-dihydrobenzo[f]imidazo[1,2-d][1,4]oxazepin-9-yl)-1H-pyrazol-1-yl)-2-methylpropanamide]
- EC50 (HPAC): 645 nM
- EC50 (Detroit562): 58 nM
- EC50 (EFM-19): 13 nM
- EC50 [1]: 5 nM
- EC50 (SW620): 10000 nM
- EC50 (Cal 85-1): 520 nM
- EC50 (H596): 58 nM
- EC50 (MDA-MB-468): 7880 nM
- EC50 (SKBR3): 43 nM
- EC50 (H441): 10000 nM
- EC50 (HS 578T-1x2): 2070 nM
- EC50 (KP4x1): 2940 nM
- EC50 (BT474): 84 nM
- EC50 (G22): 6020 nM
- EC50 (SW48 parental cells): 22 nM
- apoptosis induction (autoradiograms of lysates) [2]: induces apoptosis in cells harboring PI3K mutations at very low compound concentrations
- EC50 (SF539): 1880 nM
- EC50 (EVSA-T): 1120 nM
- EC50 (H838): 3100 nM
- EC50 (LXFL-529): 57 nM
- EC50 (IGROV1): 31 nM
- EC50 (H1793): 2020 nM
- EC50 (H322): 280 nM
- EC50 (22RV1): 50 nM
- EC50 (G96): 201 nM
- EC50 (Calu-6): 10000 nM
- EC50 (HOP92): 1690 nM
- EC50 (H1048): 14 nM
- tumor volume change [3]: dose-dependent decrease in tumor volume
- EC50 (EFO21): 10000 nM
- EC50 (ZR75-30): 21 nM
- EC50 (H2122): 366 nM
- EC50 (HDQ-P1): 258 nM
- EC50 (HCC-70): 43 nM
- EC50 (H292): 274 nM
- EC50 (SW403): 143 nM
- EC50 (LN-229): 3410 nM
- EC50 (OVCAR3): 398 nM
- EC50 (LS-180): 795 nM
- EC50 (CAL-148): 375 nM
